# According to the Kinase Knowledgebase extract (Sharma et al. 2016):
# Target: CDK2 (UniProt P24941)
# Experiment: Enzyme Assay
row,Ki,Structure (SMILES)
1,< 1000 nM,Cc1cc(Nc2nc(Nc3ccc4ncsc4c3)nc3ccccc23)[nH]n1
2,1000 to 20000 nM,CC(=O)Nc1ccc(Sc2nc(Nc3cc(C)n[nH]3)c3ccccc3n2)cc1
3,< 1000 nM,CCc1ccc(Nc2nc(Nc3cc(C4CC4)n[nH]3)c3ccccc3n2)cc1
4,< 1000 nM,Cc1cc(Nc2nc(Nc3ccc(CC#N)cc3)nc3ccccc23)[nH]n1
5,< 1000 nM,OCCc1ccc(Nc2nc(Nc3cc(C4CC4)n[nH]3)c3ccccc3n2)cc1

# Further lines, the molecule ahead of its results:
row,Structure (SMILES),Ki
1,Cc1cccc(Sc2nc(Nc3cc(C)n[nH]3)c3ccccc3n2)c1,< 1000 nM
2,COc1cccc2c(Nc3cc(C)n[nH]3)nc(Sc3ccc(NC(C)=O)cc3)nc12,1000 to 20000 nM
3,CCCS(=O)(=O)Nc1ccc(Sc2nc(Nc3cc(C)n[nH]3)c3ccccc3n2)cc1,1000 to 20000 nM
4,N#CCc1ccc(Nc2nc(Nc3cc(C4CC4)n[nH]3)cc(-c3ccccc3)n2)cc1,< 1000 nM
5,CC(=O)Nc1ccc(Sc2nc(Nc3cc(C4CC4)n[nH]3)c3ccccc3n2)cc1,< 1000 nM
6,COc1ccc2c(Nc3cc(C)n[nH]3)nc(Sc3ccc(NC(C)=O)cc3)nc2c1,1000 to 20000 nM
7,c1ccc2c(Nc3cc(C4CC4)n[nH]3)nc(Nc3ccc4ncsc4c3)nc2c1,< 1000 nM
8,CC(=O)Nc1ccc(Sc2nc(Nc3cc(C)n[nH]3)c3cccc(O)c3n2)cc1,1000 to 20000 nM
